Measurements reported in US8871754B2, “Compounds and compositions for the treatment of parasitic diseases” (IRM LLC, priority 2012, dated 2014).

Experiments:
[1] = system: P. falciparum (NF54 or 3D7 strain) in infected human erythrocytes; assay: Assay for P. falciparum proliferation in infected human blood cells (SYBR Green); type: cell-based; details: Plasmodium falciparum, Erythrocyte; NF54 or 3D7 strain, 72 hours, SYBR Green fluorescence; read-out: EC50 (nM), inhibitory efficacy in delaying P. falciparum proliferation in infected human blood cells
Experimental: Assay for P. falciparum Proliferation in Infected Human Blood Cells
Compounds of the invention can be assayed to measure their capacity to inhibit proliferation of P. falciparum parasitemia in infected red blood cells. This parasite proliferation assay measures the increase in parasite DNA content using a DNA intercalating dye, SYBR Green® (INVITROGEN®) which has a high affinity for double stranded DNA.
NF54 or 3D7 P. falciparum strain is grown in complete culturing media until parasitemia reaches 3% to 8% with O+ human erythrocytes. […] 20 μl of screening media is dispensed into 384 well assay plates. 50 nl of compounds of the invention (in DMSO), including antimalarial controls (mefloquine, pyrimethamine and artemisinin), are then transferred into the assay plates, as well as DMSO alone to serve as a negative control for inhibition. Then 30 μl of a suspension of a NF54 or 3D7 P. falciparum infected erythrocytes in screening media is dispensed into the assay plates such that the final hematocrit is 2.5% with a final parasitemia of 0.3%. The plates are placed in a 37° C. incubator for 72 hours in a low oxygen environment containing 93% N2, 4% CO2, and 3% O2 gas mixture. 10 μl of lysis buffer (saponin, triton-X, EDTA) containing a 10× solution of SYBR Green I® in RPMI media is dispensed into the plates. The plates are lidded and kept at room temperature overnight for the lysis of the infected red blood cells. The fluorescence intensity is measured (excitation […], emission 530 nm) using the Envision™ system (Perkin Elmer). The percentage inhibition of 50%, […], is calculated for each compound.

[2] = system: P. yoelii sporozoites in HepG2-A16-CD81EGFP cells; assay: P. yoelii sporozoite invasion assay (proliferation of parasite in infected liver cells, immunofluorescence); type: cell-based; details: Plasmodium yoelii, 48 hours, parasite area by immunofluorescence, read-out: EC50 (nM), inhibitory efficacy by the P. yoelii sporozoite invasion assay
Description: Assay for Profiferation of Parasite in Infected Liver Cells
Compounds of the invention can be assayed to measure their capacity to inhibit proliferation of parasites in liver cells. The proliferation is quantified by determine the number of infected cells by immunofluorescence.
Due to the difficulty of successfully infecting immortalized human liver cell lines with the human malaria sporozoites (liver-stage parasite), rodent malaria sporozoites from Plasmodium yoelii (17XNL) and P. berghei (ANKA) are the preferred surrogate. Sporozoites are obtained from Anopheles stephensi mosquitoes supplied by the New York University Insectary, which ships the malaria-infected mosquitoes 10-13 days following the ingestion of an infective blood meal.
A transgenic HepG2 cell line expressing the tetraspanin CD81 receptor (HepG2-A16-CD81^EGFP) is used to increase the infectivity rate of rodent-malaria sporozoites into human cells. HepG2-A16-CD81^EGFP cells are stably transformed to express a GFP-CD81 fusion protein. A continuous in vitro culture of this line was maintained at 37° C. in 4% CO2 in complete media (CM) which contains: DMEM (Invitrogen, Carlsbad, USA) supplemented with 10% FCS, 0.29 mg/ml glutamine, 100 units penicillin and 100 μg/ml streptomycin (SigmaAldrich, USA).
P. yoelii Sporozoite Invasion Assay
Twenty to twenty-six hours prior to sporozoite infection, 7.5×10^3 HepG2-A16-CD81^EGFP cells are seeded into 384-well plates (Aurora 384 IQ-EB black plates with clear bottoms; 50 μl of 1.5×10^5 cells/ml in CM). These plates are incubated at 37° C. with 4% CO2 overnight. Two hours prior to infection, 50 nl of compound dissolved in DMSO (0.1% final DMSO concentration per well) were transferred with a PinTool (GNF Systems) into the assay plates (10 μM final concentration). A 1:3 serial dilution of atovaquone (10 μM at the highest final concentration) and wells treated only with DMSO were used as positive and negative controls, respectively.
Freshly dissected salivary glands from infected mosquitoes were homogenized in a glass tissue grinder, filtered twice through Nylon cell strainers (40 μm pore size, BD Falcon) and counted using a hemocytometer. The assay plate with HepG2-A16-CD81^EGFP cells and compound were then infected with 8×10^3 sporozoitesper well and the plates are subjected to a centrifugal force of 650×g to pellet the sporozoites onto the liver cell monolayer. The assay plate is incubated at 37° C. for 2 hours to permit sporozoite invasion, then the media is aspirated from the media plate, and replaced with 50 μl CM (containing a 5× concentration of penicillin/streptomycin; 500 units penicillin and 0.5 mg streptomycin per ml) per well. 50 nl of compound is re-introduced by PinTool and the assay plate incubated for 48 hours at 37° C. before quantification of infected cells by immunofluorescence.
Atovaquone and uninfected wells were used as controls on each plate. Two replicate plates are tested for each assay.
Immunofluorescence Quantification of Exo-Erythrocytic Forms (EEFs)
After fixing the cells by addition of 12.5 μl of 20% solution of paraformaldehyde (EMS, Hatfield, USA) to each assay well (4% final formaldehyde concentration), membranes were permeabilized with 0.5% Triton-X-100 (Thermo Fisher Scientific) and EEFs were stained using a mouse polyclonal serum raised against the Plasmodium yoelii heat shock protein 70 (PyHSP70), a DyLight 649 goat anti-mouse IgG, Fc(gamma) fragment specific secondary antibody (Jackson Immuno Research, Cat#115-495-071) and the Hoechst 33342 nucleic acid dye (Invitrogen, Carlsbad, USA). Stained EEFs were then quantified using the Opera Confocal High Content Screening System (Perkin Elmer, Waltham, USA). Images were collected using a 20× objective lens (20×/0.45 NA, LWD Plan Fluor, Olympus) at a binning of 2, using a 365 nm Xeon arc lamp illumination to detect the Hoechst-labeled nuclei and 635 nm laser line to excite DyLight649-labeled parasites. […]

Row | Structure (SMILES) | EC50 [1] [nM] | EC50 [2] [nM]
1 | CN(C(=O)c1ccn2ncc(-c3ccc(C(F)(F)F)cc3)c2c1)c1ccc(C#N)cc1 [Example 1, N-(4-cyanophenyl)-N-methyl-3-(4-(trifluoromethyl)phenyl)pyrazolo[1,5-a]pyridine-5-carboxamide] | 8 | 7.3
2 | CN(C(=O)c1ccn2ncc(-c3ccc(C(F)(F)F)cc3)c2c1)c1ccc(C#N)cn1 [Example 13, N-(5-cyanopyridin-2-yl)-N-methyl-3-(4-(trifluoromethyl)phenyl)pyrazolo[1,5-a]pyridine-5-carboxamide] | 8 | 17.9
3 | CN(C(=O)c1ccn2ncc(-c3ccc(C(N)=O)cc3)c2c1)c1ccc(C#N)cc1 [Example 19, 3-(4-carbamoylphenyl)-N-(4-cyanophenyl)-N-methylpyrazolo[1,5-a]pyridine-5-carboxamide] | 1 | 4.3
4 | CN(C(=O)c1ccn2ncc(-c3ccc(C(N)=O)cc3)c2c1)c1ccc(F)cc1 [Example 20, 3-(4-carbamoylphenyl)-N-(4-fluorophenyl)-N-methylpyrazolo[1,5-a]pyridine-5-carboxamide] | 9 | 13.5
5 | CN(C(=O)c1ccn2ncc(-c3ccc(C(F)(F)F)cn3)c2c1)c1ccc(C#N)cn1 [Example 25, N-(5-cyanopyridin-2-yl)-N-methyl-3-(5-(trifluoromethyl)109yridine-2-yl)pyrazolo[1,5-a]pyridine-5-carboxamide] | 7 | 229
6 | CN(C(=O)c1ccn2ncc(-c3ccc(C(N)=O)cn3)c2c1)c1ccc(C#N)cc1 [Example 27, 3-(5-carbamoylpyridin-2-yl)-N-(4-cyanophenyl)-N-methylpyrazolo[1,5-a]pyridine-5-carboxamide] | 10 | 201
7 | CN(C(=O)c1ccc(C#N)cc1)c1ccn2ncc(-c3ccc(C(F)(F)F)cc3)c2c1 [Example 28, 4-cyano-N-methyl-N-(3-(4-(trifluoromethyl)phenyl)pyrazolo[1,5-a]pyridine-5-yl)benzamide] | 7 | 23.2
8 | CN(C(=O)c1ccn2ncc(-c3ccc(C(N)=O)cc3)c2c1)c1ccc(C#N)cn1 [Example 32, 3-(4-carbamoylphenyl)-N-(5-cyanopyridin-2-yl)-N-methylpyrazolo[1,5-a]pyridine-5-carboxamide] | 1 | 8
9 | CN(C(=O)c1ccn2ncc(-c3ccc(C(F)(F)F)cc3)c2c1)c1ccc(S(C)(=O)=O)cn1 [Example 34, N-methyl-N-(5-(methylsulfonyl)114yridine-2-yl)-3-(4-(trifluoromethyl)phenyl)pyrazolo[1,5-a]pyridine-5-carboxamide] | 22 | 53.2
10 | CN(C(=O)c1ccn2ncc(-c3cnc4[nH]ccc4c3)c2c1)c1ccc(C#N)cc1 [Example 40, N-(4-cyanophenyl)-N-methyl-3-(1H-pyrrolo[2,3-b]pyridin-5-yl)pyrazolo[1,5-a]pyridine-5-carboxamide] | 1 | 63.1
11 | CN(C(=O)c1ccn2ncc(-c3ccc(N)nc3)c2c1)c1ccc(C#N)cc1 [Example 41, 3-(6-aminopyridin-3-yl)-N-(4-cyanophenyl)-N-methylpyrazolo[1,5-a]pyridine-5-carboxamide] | 2 | 14.3
12 | CN(C(=O)c1ccn2ncc(-c3ccc(N)nc3)c2c1)c1ccc(C#N)cn1 [Example 54, 3-(6-aminopyridin-3-yl)-N-(5-cyanopyridin-2-yl)-N-methylpyrazolo[1,5-a]pyridine-5-carboxamide] | 9 | 79
13 | CNC(=O)c1ccc(-c2cnn3ccc(C(=O)N(C)c4ccc(C#N)cc4)cc23)cc1 [Example 67, N-(4-cyanophenyl)-N-methyl-3-(4-(methylcarbamoyl)phenyl)pyrazolo[1,5-a]pyridine-5-carboxamide] | 5 | 4.6
14 | CNC(=O)c1ccc(-c2cnn3ccc(C(=O)N(C)c4ccc(C#N)cn4)cc23)cc1 [Example 75, N-(5-cyanopyridin-2-yl)-N-methyl-3-(4-(methylcarbamoyl)phenyl)pyrazolo[1,5-a]pyridine-5-carboxamide] | 4 | 2.25
15 | CN(C(=O)c1ccn2ncc(-c3ccc(C(N)=O)cc3)c2c1)C1CCC(C#N)CC1 (stereo not drawn) [Example 82, 3-(4-carbamoylphenyl)-N-(4-cyanocyclohexyl)-N-methylpyrazolo[1,5-a]pyridine-5-carboxamide] | 1160 | –
16 | CN(C(=O)c1ccn2ncc(-c3cnc(N)nc3)c2c1)c1ccc(C#N)cc1 [Example 83, 3-(2-aminopyrimidin-5-yl)-N-(4-cyanophenyl)-N-methylpyrazolo[1,5-a]pyridine-5-carboxamide] | 4 | –
17 | CN(C(=O)c1ccn2ncc(-c3cnc(N)c(C(F)(F)F)c3)c2c1)c1ccc(C#N)cn1 [Example 84, 3-(6-amino-5-(trifluoromethyl)pyridin-3-yl)-N-(5-cyanopyridin-2-yl)-N-methylpyrazolo[1,5-a]pyridine-5-carboxamide] | 6 | –
18 | CN(C(=O)c1ccn2ncc(-c3cnc(N)c(C#N)c3)c2c1)c1ccc(C#N)cn1 [Example 85, 3-(6-amino-5-cyanopyridin-3-yl)-N-(5-cyanopyridin-2-yl)-N-methylpyrazolo[1,5-a]pyridine-5-carboxamide] | 16 | –
19 | CN(C(=O)c1ccn2ncc(-c3cnc(N)c(Cl)c3)c2c1)c1ccc(C#N)cn1 [Example 86, 3-(6-amino-5-chloropyridin-3-yl)-N-(5-cyanopyridin-2-yl)-N-methylpyrazolo[1,5-a]pyridine-5-carboxamide] | 10 | –
20 | CN(C)C(=O)c1cc(-c2cnn3ccc(C(=O)N(C)c4ccc(C#N)cn4)cc23)cnc1N [Example 87, 3-(6-amino-5-(dimethylcarbamoyl)pyridin-3-yl)-N-(5-cyanopyridin-2-yl)-N-methylpyrazolo[1,5-a]pyridine-5-carboxamide] | 41 | –
21 | COc1cc(-c2cnn3ccc(C(=O)N(C)c4ccc(C#N)cn4)cc23)cnc1N [Example 88, 3-(6-amino-5-methoxypyridin-3-yl)-N-(5-cyanopyridin-2-yl)-N-methylpyrazolo[1,5-a]pyridine-5-carboxamide] | 83 | –
22 | CN(C(=O)c1ccn2ncc(-c3ccc(C(N)=O)cc3)c2c1)c1ccc(Cl)cc1C=O [Example 89, 3-(4-carbamoylphenyl)-N-(4-chloro-2-formylphenyl)-N-methylpyrazolo[1,5-a]pyridine-5-carboxamide] | 6 | –
